Test results: patent US11679107B2 (Eisai R&D Management Co., Ltd., priority 2018, dated 2023)
Where two headings read alike, the source gives them in different places.

Assays:
[1] = tested on: Ad2 variant pre-mRNAs spliced in HeLa S3 nuclear extracts; assay: In vitro splicing assay (IVS), RT-qPCR of spliced product; type: biochemical; details: for IC50: geometric mean; for Ratio Ad2.1/2.2: ratio of IVS IC50 Ad2.1 to Ad2.2
Summary of the method: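 Ad2 variant pre-mRNA (2 ng) with FTZΔi control RNA in HeLa S3 nuclear extract (8 μg) was pre-incubated with compound or DMSO for 15 min at 30 °C. Splicing ran 90 min at 30 °C after adding 0.5 mM ATP, creatine phosphate and MgCl2. Spliced product was quantified by TaqMan RT-qPCR, normalized to DMSO, and curve-fitted.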

[2] = tested on: NCI-H1568 cells (high MCL1); assay: Cell proliferation and viability, CellTiter-Glo, 72 hours; type: cell-based; details: for GI50: geometric mean
Summary of the method: (§1)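 Cells grown in RPMI-1640 with 10% FBS (Panc line with added insulin and FBS to 15%) were exposed to an 11-point half-log dilution series, typically 10 μM-100 pM, at 0.1% final DMSO. After incubation at 37° C, 5% CO2, ATP content was measured by luminescence and normalized to a time-zero plate and DMSO wells.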

[3] = tested on: Panc 05.04 cells (SF3b K700E mutant); assay: as above; type: cell-based; details: for GI50: geometric mean
Summary of the method: as §1

SF3b complexes = target: T1, SF3b complexes (Homo sapiens, UniProt O75533+Q7RTV0); assay: Scintillation proximity assay (SPA) with [3H]-labelled pladienolide probe; type: binding; details: SF3B1 (WT); geometric mean; read-out: SPA-ATS GMean IC50 (nM) SF3B1 (WT)
T1 construct: endogenous in cells; host or cells: Nuclear extracts; A HeLa S3 extract preparation is described for the in vitro splicing assay
Summary of the method: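 SF3b complexes captured from nuclear extracts on anti-SF3B1 antibody SPA beads; test compounds pre-incubated 30 min before 2.5 nM [3H]-pladienolide probe added, then 30 min incubation. Bound probe read by scintillation; values from non-linear regression of concentration–response curves.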

[4] = Ad2.1 pre-mRNA substrate, read-out: qPCR-IVS-ATS GMean IC50 (nM) Ad2.1
[5] = Ad2.2 pre-mRNA substrate, read-out: qPCR-IVS-ATS GMean IC50 (nM) Ad2.2
[6] = NCI-H1568, read-out: CTGlo-ATS GMean GI50 (nM) 72 h NCIH1568.1, NCIH1568.1 cells, 72 h
[7] = NCIH1568.1 cells, 72 h, −100% cidal, 0% static, 100% maximal growth
[8] = PANC0504.1 cells, 72 h, −100% cidal, 0% static, 100% maximal growth
[9] = Panc 05.04, read-out: CTGlo-ATS GMean GI50 (nM) 72 h PANC0504.1, PANC0504.1 cells, 72 h
[10] = 72 h, NCIH1568.1, -100% = cidal, 0% = static, 100% = uninhibited growth
[11] = NCI-H1568, 72 h, read-out: CTGlo-ATS GMean GI50 (nM) 72 h NCIH1568.1, 72 h, NCIH1568.1
[12] = 72 h, PANC0504.1, -100% = cidal, 0% = static, 100% = uninhibited growth
[13] = Panc 05.04, 72 h, read-out: CTGlo-ATS GMean GI50 (nM) 72 h PANC0504.1, 72 h, PANC0504.1

Row | Compound | IC50 [1, 4] | IC50 [1, 5] | GI50 [2, 6] | CTGlo-ATS Mean MinResponse % 72 h NCIH1568.1 [2, 7] | CTGlo-ATS Mean MinResponse % 72 h PANC0504.1 [3, 8] | GI50 [3, 9] | IC50 (SF3b complexes) | Ratio Ad2.1/2.2 [1] | CTGlo-ATS Mean MinResponse % 72 h NCIH1568.1 [2, 10] | GI50 [2, 11] | CTGlo-ATS Mean MinResponse % 72 h PANC0504.1 [3, 12] | GI50 [3, 13] | GI50 ([2]; NCI-H1568, 72 h, read-out: CTGlo-ATS GMean GI50 (nM) 72 h NCIH1568.1, NCIH1568.1 cells, 72 h) | GI50 ([3]; Panc 05.04, 72 h, read-out: CTGlo-ATS GMean GI50 (nM) 72 h PANC0504.1, PANC0504.1 cells, 72 h) | GI50 ([2]; NCI-H1568, read-out: CTGlo-ATS GMean GI50 (nM) 72 h NCIH1568.1, 72 h, NCIH1568.1) | GI50 ([3]; Panc 05.04, read-out: CTGlo-ATS GMean GI50 (nM) 72 h PANC0504.1, 72 h, PANC0504.1)
1 | C/C(=C\c1cc(N2CCOCC2)ccc1F)[C@H]1OC(=O)C[C@H](O)CC[C@H](C)[C@@H](OC(=O)N2CCC(N3CCCCC3)CC2)/C=C/[C@@H]1C [Compound 11] | > 25000 nM | 93.4 nM | 84.4 nM | −43.979% | −91.789% | 54.2 nM | 9.49 nM | – | – | – | – | – | – | – | – | –
2 | C/C(=C\c1cc(F)cc(S(=O)(=O)N2CCCC2)c1)[C@H]1OC(=O)C[C@H](O)CC[C@H](C)[C@@H](OC(=O)N2CCN(C)CC2)/C=C/[C@@H]1C [Compound 197, [(2S,3S,4E,6R,7S,10R)-2-[(E)-1-(3-fluoro-5-pyrrolidin-1-ylsulfonylphenyl)prop-1-en-2-yl]-10-hydroxy-3,7-dimethyl-12-oxo-1-oxacyclododec-4-en-6-yl] 4-methylpiperazine-1-carboxylate] | 98.5 nM | 22.8 nM | – | – | – | – | 2.67 nM | 4.318 | −69.290% | 4.69 nM | −91.100% | 3.53 nM | – | – | – | –
3 | C/C(=C\c1cc(F)c2cnn(CC3CC3)c2c1)[C@H]1OC(=O)C[C@H](O)CC[C@H](C)[C@@H](OC(=O)N2CCN(C)CC2)/C=C/[C@@H]1C [Compound 87, [(2S,3S,4E,6R,7S,10R)-2-[(E)-1-[1-(cyclopropylmethyl)-4-fluoroindazol-6-yl]prop-1-en-2-yl]-10-hydroxy-3,7-dimethyl-12-oxo-1-oxacyclododec-4-en-6-yl] 4-methylpiperazine-1-carboxylate] | 62.7 nM | 27 nM | 3.68 nM | −85.463% | −79.550% | 4.19 nM | 4.98 nM | – | – | – | – | – | – | – | – | –
4 | C/C(=C\c1cc(F)c2cn(CC3CC3)nc2c1)[C@H]1OC(=O)C[C@H](O)CC[C@H](C)[C@@H](OC(=O)N2CCN(C)CC2)/C=C/[C@@H]1C [Compound 99] | > 25000 nM | 156 nM | 93.2 nM | −73.818% | −69.788% | 78 nM | 4.14 nM | – | – | – | – | – | – | – | – | –
5 | C/C(=C\c1cc(F)cc(N2CCN(C(=O)Cn3cccn3)CC2)c1)[C@H]1OC(=O)C[C@H](O)CC[C@H](C)[C@@H](OC(=O)N2CCNCC2)/C=C/[C@@H]1C [Compound 235, [(2S,3S,4E,6R,7S,10R)-2-[(E)-1-[3-fluoro-5-[4-(2-pyrazol-1-ylacetyl)piperazin-1-yl]phenyl]prop-1-en-2-yl]-10-hydroxy-3,7-dimethyl-12-oxo-1-oxacyclododec-4-en-6-yl] piperazine-1-carboxylate] | 16 nM | 15.1 nM | – | – | – | – | 5.56 nM | 1.057 | −84.925% | 2.35 nM | −84.459% | 1.94 nM | – | – | – | –
6 | C/C(=C\c1cc(F)cc(N2CCOCC2)c1)C1OC(=O)C[C@H](O)CC[C@H](C)[C@@H](OC(=O)N2CCN(C3CCOCC3)CC2)/C=C/[C@@H]1C (stereo partly shown) [Compound 36] | 236 nM | 32.9 nM | – | −54.389% | −84.494% | – | 3.49 nM | – | – | – | – | – | 25.4 nM | 19 nM | – | –
7 | C/C(=C\c1cccc(S(=O)(=O)C2CC2)c1)[C@H]1OC(=O)C[C@H](O)CC[C@H](C)[C@@H](OC(=O)N2CCN(C)CC2)/C=C/[C@@H]1C [Compound 215, [(2S,3S,4E,6R,7S,10R)-2-[(E)-1-(3-cyclopropylsulfonylphenyl)prop-1-en-2-yl]-10-hydroxy-3,7-dimethyl-12-oxo-1-oxacyclododec-4-en-6-yl] 4-methylpiperazine-1-carboxylate] | 20500 nM | 50.7 nM | – | – | – | – | 6.83 nM | 403.817 | −42.412% | 25 nM | −81.853% | 20 nM | – | – | – | –
8 | C/C(=C\c1ccc(C)c2[nH]ncc12)[C@H]1OC(=O)C[C@H](O)CC[C@H](C)[C@@H](OC(=O)N2CCN(C)CC2)/C=C/[C@@H]1C [Compound 89, [(2S,3S,4E,6R,7S,10R)-10-hydroxy-3,7-dimethyl-2-[(E)-1-(7-methyl-1H-indazol-4-yl)prop-1-en-2-yl]-12-oxo-1-oxacyclododec-4-en-6-yl] 4-methylpiperazine-1-carboxylate] | 24700 nM | 95.4 nM | 219 nM | −22.815% | −16.694% | 109 nM | 3.25 nM | – | – | – | – | – | – | – | – | –
9 | C/C(=C\c1cc(F)cc(N2CCC3(COC3)C2)c1)[C@H]1OC(=O)C[C@H](O)CC[C@H](C)[C@@H](OC(=O)N2CCN(C)CC2)/C=C/[C@@H]1C [Compound 33] | 28.4 nM | 27.6 nM | 12 nM | −73.122% | −77.334% | 10 nM | 5.58 nM | – | – | – | – | – | – | – | – | –
10 | C/C(=C\c1cccc(S(=O)(=O)N2CC(F)(F)C2)c1)[C@H]1OC(=O)C[C@H](O)CC[C@H](C)[C@@H](OC(=O)N2CCN(C)CC2)/C=C/[C@@H]1C [Compound 206, [(2S,3S,4E,6R,7S,10R)-2-[(E)-1-[3-(3,3-difluoroazetidin-1-yl)sulfonylphenyl]prop-1-en-2-yl]-10-hydroxy-3,7-dimethyl-12-oxo-1-oxacyclododec-4-en-6-yl] 4-methylpiperazine-1-carboxylate] | > 25000 nM | 113 nM | – | – | – | – | 1.81 nM | 221.630 | −57.585% | – | −83.659% | – | – | – | 72.2 nM | 62.3 nM
11 | C/C(=C\c1cc(F)cc(N2CCOCC2)c1)[C@H]1OC(=O)C[C@H](O)CC[C@H](C)[C@@H](OC(=O)NCCCN2CCOCC2)/C=C/[C@@H]1C [Compound 241, [(2S,3S,4E,6R,7S,10R)-2-[(E)-1-(3-fluoro-5-morpholin-4-ylphenyl)prop-1-en-2-yl]-10-hydroxy-3,7-dimethyl-12-oxo-1-oxacyclododec-4-en-6-yl] N-(3-morpholin-4-ylpropyl)carbamate] | > 25000 nM | 130 nM | – | – | – | – | 20.5 nM | 191.917 | −59.521% | 225 nM | −88.873% | 120 nM | – | – | – | –
